According to patent US20150368681A1, “Dehydroascorbic Acid Process” (priority 2014, published 2015):

Experiment: Storage stability of DHAA in oxidized zucchini puree product, DHAA concentration by TCEP differential absorbance method
Format: physicochemical
Description: Four zucchini fruits about 6-8 inches long were purchased at a local grocery store. The shelf labeling indicated the fruits were a product of Mexico, as might be expected in Utah during the month of November when this experiment was conducted. Thus the fruit was not locally-grown and probably older (stored longer since picked) than known fresh-picked fruit. It is known that the AAO activity of zucchini fruit decreases during storage after being picked. The epicarp and outer portions of the mesocarp were peeled from the fruits, to the extent that approximately one-half of the weight of each fruit was included in the peelings. 300 grams of peelings were added to a blender with 100 grams purified water and pureed. 20 grams of the puree was removed and reserved for a “blank”. To the remaining puree (380 grams) was added 1.4 grams AA (as pure crystals approximately US mesh size 20-40) and the puree was mixed in the blender about 1 minute. The pH of the puree was measured and found to be 5.2, and a redox test indicated AA reducing activity in the puree. The puree was allowed to stand with periodic brief mixing for 35 minutes. […] A 20 gram portion was removed for a “test.” The blank and test solutions were centrifuged to remove the pulp so that pulp-free solutions could be spectrophotometrically analyzed. 25 uL of each of these solutions were diluted in 10 mL of 0.15 M phosphoric acid diluent, and the absorbance of each was determined using a UV spectrometer at 262 nm wavelength blanked against diluent. 2 mL of each dilution were combined with 2 mL of a TCEP reagent, incubated one hour, and then the absorbance at 262 nm of these solutions were determined as above (TCEP reagent reduces DHAA in the solution to AA; absorbance measurements at wavelengths where AA strongly absorbs, before and after treatment with TCEP, is a method known to practitioners in the art to quantify DHAA concentration by the differential absorption principle). The following absorption values were obtained (TCEP values are corrected for the X2 dilution):
One whole zucchini fruit weighing 235 grams was pureed in 120 mL water in a blender. The pH of the initial zucchini puree was 6.5. At time 0 minutes, 1.0 gram crystalline AA was added. After mixing 30 seconds, the pH was 5.0. At the times indicated in the table below, pH was recorded, iodine indicator redox result was recorded, and/or additional AA in the amounts indicated were added after testing the pH and redox status. The zucchini puree was continuously mixed in the blender during the entire time, and a cap in the top of the blender was left open to allow fresh air to be drawn into the vortex of the puree in the blender.
The product was split into three equal parts. Part 1 was kept in a closed container at room temperature. Part 2 was kept in a closed container at standard refrigerator temperature of 4 degrees C. Part 3 was kept in a closed container at common freezer temperature of minus 20 degrees C. Part 1 was tested immediately for DHAA concentration by the TCEP method previously discussed, and then after overnight storage (approx. 12 hours); Part 2 was tested after overnight storage (approx. 12 hours), and then after 13 days; Part 3 was tested after 13 days. Recovery column is the actual concentration divided by the maximum expected DHAA concentration of 2.4%, expressed as percent.

Compound: O=C1O[C@H]([C@@H](O)CO)C(=O)C1=O [DHAA, dehydroascorbic acid]
- DHAA Concentration (Example 3 product, Part 1, tested immediately, storage 0 hours): 2.27%
- DHAA Concentration (Part 1, closed container, room temperature, 12 hours): 1.68%
- DHAA Concentration (Part 2, refrigerator 4 degrees C, 12 hours): 2.14%
- DHAA Concentration (Part 2, refrigerator 4 degrees C, 312 hours (13 d)): 1.27%
- DHAA Concentration (Part 3, freezer minus 20 degrees C, 312 hours (13 d)): 2.10%
- Loss of DHAA on frozen storage (product stored frozen for at least 13 days): minimal loss
